SMILES strings stand for the structures. Several values for one entry are separate records, joined by “and”; a condition that tells them apart may be missing. Equal values may be shown once. Read-outs that look alike come from different tables or passages of the source.

Experiment [1] has as its system strain 6. The experiment can be described thus: Acidification activity of strain 6 bulk starter cultures at different iron and manganese concentrations. The format is cell-based, mesophilic lactic acid bacteria. The procedure: The strains were fermented in sterilized production medium in a standard fermentation vessel. The fermentation was carried out by maintaining the pH between 6-6.5 with ammonia at a temperature of about 30° C. The culture was harvested after ammonia consumption was stabilized. The culture was cooled to a temperature of below 10° C. and centrifuged. A concentration factor (harvested broth over pellet volume) of 15-20 was obtained. The obtained concentrate was used for further testing, e.g. with the cell concentrates a series of bulk starter culture fermentations was performed. […] The bulk starter culture was prepared by fermenting the milk during 6 hours at 30° C. under pH-stat conditions. Ammonia was used to maintain the pH at 6.0-6.2. Samples (1.5 ml) of the cultures were taken after 5 and 6 hours fermentation. The samples were tested to establish the acidification activity of the culture under standard conditions. […] Several different final iron and manganese concentrations were used in this experiment. The bulk starter culture was prepared as described above with the proviso that the UHT milk was inoculated with 0.6 wt % cell concentrate.

For experiment [2], the system named is mesophilic lactic acid bacteria Strain 8. The experiment can be described thus: Acidification activity of bulk starter cultures with yeast extract, iron, manganese and/or molybdate, Strain 8. The experiment is classed as cell-based. Particulars: YE 0.02 wt %, Fe, Mn, Mo 8 ppm each. The procedure:
(§1) The strains were fermented in sterilized production medium in a standard fermentation vessel. The fermentation was carried out by maintaining the pH between 6-6.5 with ammonia at a temperature of about 30° C. The culture was harvested after ammonia consumption was stabilized. The culture was cooled to a temperature of below 10° C. and centrifuged. A concentration factor (harvested broth over pellet volume) of 15-20 was obtained. The obtained concentrate was used for further testing, e.g. with the cell concentrates a series of bulk starter culture fermentations was performed. […] The bulk starter culture was prepared by fermenting the milk during 6 hours at 30° C. under pH-stat conditions. Ammonia was used to maintain the pH at 6.0-6.2. Samples (1.5 ml) of the cultures were taken after 5 and 6 hours fermentation. The samples were tested to establish the acidification activity of the culture under standard conditions. […] The strains were fermented as described in Example 6. The bulk starter cultures were prepared as described in Example 6 with the proviso that the UHT milk was inoculated with 0.6 wt % cell concentrate. Acid production was measured as described in Example 6 with the proviso that 6 gram sample was taken from the cultures after 5 and 6 hours and added to 200 g UHT milk. The experiment was done with two different strains.

The subject of experiment [3] is mesophilic lactic acid bacteria Strain 9. Kind of experiment: Acidification activity of bulk starter cultures with yeast extract, iron, manganese and/or molybdate, Strain 9. The format is cell-based. As to conditions: YE 0.02 wt %, Fe, Mn, Mo 8 ppm each. As for the experimental part: as §1
In experiment [4] the test system is mesophilic lactic acid bacteria Strain 5. Particulars: 31° C. As for the experimental part:
(§2) One litre of 2%-fat UHT milk was added to a previously sterilized 1200 ml fermentor vessel. Suspensions of yeast extract formulated with either iron pyrophosphate or iron sulfate were sterilized separately and added to the vessel to supply the milk with 0.02 wt % yeast extract and iron at a final amount of 2.4, 4.2 or 6 ppm.
(§3) Vessels were heated to 31° C., inoculated with freshly thawed culture concentrates and incubated for 7 hours under pH-control (pH between 5.9 and 6.1). After the incubation, the obtained starter culture was immediately cooled to a temperature below 8° C.
(§4) The obtained starter culture was tested for acidification activity by inoculating cold 2%-fat UHT-pasteurised milk with 3.0% (v/v) of the culture, incubating the inoculated milk for 2.5 hours at 31° C., and then measuring the change in pH of the milk versus non-inoculated milk. The experiment was done for five different mesophilic lactic acid bacteria strains.

Experiment [5] concerns mesophilic lactic acid bacteria Strain 3. Particulars: 31° C. As for the experimental part: as §2, §3, §4
Experiment [6] has as its system mesophilic lactic acid bacteria Strain 4. Particulars: 31° C. The procedure: as §2, §3, §4
In experiment [7] the test system is mesophilic lactic acid bacteria Strain 2. Particulars: 31° C., in the absence of iron 1.44. The procedure:
as §2, §3, §4

The test system of experiment [8] is mesophilic lactic acid bacteria Strain 1. As to conditions: 31° C., in the absence of iron 1.18. The procedure:
as §2, §3, §4

[9] abbreviates: Strain 5, 2.4 ppm iron + 0.02 wt % yeast extract.
Setting [10] is: Strain 5, 4.2 ppm iron + 0.02 wt % yeast extract.
Setting [11] is: Strain 5, 6.0 ppm iron + 0.02 wt % yeast extract.
The mark [12] stands for this setting: Strain 3, 2.4 ppm iron + 0.02 wt % yeast extract.
The mark [13] stands for this setting: Strain 3, 4.2 ppm iron + 0.02 wt % yeast extract.
[14] abbreviates: Strain 3, 6.0 ppm iron + 0.02 wt % yeast extract.
Setting [15] is: Strain 4, 2.4 ppm iron + 0.02 wt % yeast extract.
Where [16] appears, read: Strain 4, 4.2 ppm iron + 0.02 wt % yeast extract.
Where [17] appears, read: Strain 4, 6.0 ppm iron + 0.02 wt % yeast extract.

Take `O=S(=O)([O-])[O-].[Mn+2]` [M, manganese sulphate]: the “Acidification activity of bulk starter culture” value in experiment [1] (strain 6, Fe 0 ppm, Mn 2.4 ppm, 7 hours, 0/0 ppm 1.61) was 1.65 ΔpH/2.5 h.

In the case of `[Na+].[Na+].[O]=[Mo](=[O])([O-])[O-]` [Mo, sodium molybdate], the “Acidification activity of bulk starter culture” value is 0.73 ΔpH/2.5 h in experiment [2] (Strain 8, 5 hours, no addition 0.64); 1.04 ΔpH/2.5 h in experiment [2] (Strain 8, 6 hours, no addition 1.08); 0.55 ΔpH/2.5 h in experiment [3] (Strain 9, 5 hours, no addition 0.33); 0.79 ΔpH/2.5 h in experiment [3] (Strain 9, 6 hours, no addition 0.43).

On to `O=P([O-])([O-])OP(=O)([O-])[O-].O=P([O-])([O-])OP(=O)([O-])[O-].O=P([O-])([O-])OP(=O)([O-])[O-].[Fe+3].[Fe+3].[Fe+3].[Fe+3]` [Iron pyrophosphate, iron pyrophosphate], for which the Acidification activity was 1.25 ΔpH/2.5 h in experiment [4] (setting [9]); 1.32 ΔpH/2.5 h in experiment [4] (setting [10]); 1.33 ΔpH/2.5 h in experiment [4] (setting [11]); 1.45 ΔpH/2.5 h in experiment [5] (setting [12]); 1.48 ΔpH/2.5 h in experiment [5] (setting [13]); 1.50 ΔpH/2.5 h in experiment [5] (setting [14]). Also, the Acidification activity in experiment [6] (setting [15]) was 1.48 ΔpH/2.5 h; in experiment [6] (setting [16]), 1.56 ΔpH/2.5 h; in experiment [6] (setting [17]), 1.58 ΔpH/2.5 h.

Turning to `O=S(=O)([O-])[O-].[Fe+2]` [Iron sulphate, iron sulphate], the Acidification activity in experiment [4] (setting [9]) was 1.29 ΔpH/2.5 h; in experiment [4] (setting [10]) it was 1.33 ΔpH/2.5 h; in experiment [4] (setting [11]), 1.35 ΔpH/2.5 h; in experiment [5] (setting [12]), 1.49 ΔpH/2.5 h; in experiment [5] (setting [13]), 1.49 ΔpH/2.5 h; in experiment [5] (setting [14]), 1.51 ΔpH/2.5 h. For the same compound, the Acidification activity in experiment [7] (Strain 2, 2.4 ppm iron + 0.02 wt % yeast extract) is recorded as 1.77 ΔpH/2.5 h; in experiment [7] (Strain 2, 6.0 ppm iron + 0.02 wt % yeast extract), 1.71 ΔpH/2.5 h; in experiment [6] (setting [15]), 1.54 ΔpH/2.5 h; in experiment [6] (setting [16]), 1.56 ΔpH/2.5 h; in experiment [6] (setting [17]), 1.57 ΔpH/2.5 h; in experiment [8] (Strain 1, 2.4 ppm iron + 0.02 wt % yeast extract), 1.47 ΔpH/2.5 h. The Acidification activity in experiment [8] (Strain 1, 6.0 ppm iron + 0.02 wt % yeast extract) is listed as 1.53 ΔpH/2.5 h. The “Acidification activity of bulk starter culture” value in experiment [1] is 1.67 ΔpH/2.5 h and 1.66 ΔpH/2.5 h.

The record behind these values is patent US20110200708A1, “A COMPOSITION FOR ACTIVATING AND/OR STABILIZING MICRO-ORGANISMS” (priority 2008, published 2011).
